Experimental findings from patent US4783462A, “3(2H)pyridazinone, and anti-allergic agent containing it” (Nissan Chemical Industries Ltd., priority 1985, dated 1988) are described below.

SMILES strings stand for the structures.

For the assay, the system named is LTC4. Kind of assay: Antagonism in isolated guinea-pig trachea, Test method (i) (Table 3, given as LTC4 antagonism). Type of assay: cell-based. The settings on record: Cavia porcellus, 5 min, test compound 10^-5 g/ml, given as LTC4 antagonisms. The method, then: (i) LTC4 and LTD4 antagonisms in guinea-pig trachea
Antagonisms for LTC4 and LTD4 were determined in isolated guinea-pig trachea prepared as spiral strip. Tracheal preparations were suspended under 1 g tension in 10 ml organ baths and they were incubated for 1 hr prior to use. Contractile responses to LTC4 (2×10^-8 g/ml) and LTD4 (2×10^-8 g/ml) were obtained after the maximal response to histamine (10^-4 M). Test compounds dissolved in 100% dimethyl sulfoxide were added to the organ baths (final concentration of 10^-5 g/ml or 10^-6 g/ml) 5 min prior to LTC4 and LTD4 addition, and then contractile responses to LTC4 and LTD4 were compared with those of control which was obtained from a paired trachea in the absence of test compounds. LTC4 - and LTD4 -induced contractions were expressed as a percentage of the maximal response to histamine. The antagonism was determined as follows:
Antagonism (%)=(1.0-% contraction in test/% contraction in […]
As a reminder, the inhibition is the share of the control response that was lost under treatment. A lower inhibition goes with a response near the control. On to `CCCc1cc(-c2nnn[nH]2)ccc1OCCCNc1cnn(C(C)(C)C)c(=O)c1Cl` [Compound No. 2, 4-Chloro-5-{3-[2-n-propyl-4-(1H-tetrazol-5-ylphenoxy)]propylamino}-2-t-butyl-3(2H)pyridazinone], for which 10 µg/mL produced 15% inhibition.

`CCCc1cc(C(=O)OC)ccc1OCCCNc1cnn(C(C)(C)C)c(=O)c1Cl` [Compound No. 3] registered an inhibition at 10 µg/mL of 28%. Next, `CCOC(=O)c1ccc(OCCCNc2cnn(C(C)(C)C)c(=O)c2Cl)c(Cl)c1` [Compound No. 8]: 32%. Next, `CC(C)(C)n1ncc(NCCCOc2ccc(C(=O)O)cc2Cl)c(Cl)c1=O` [Compound No. 9]: 14%; `CCn1ncc(NCCCOc2ccc(C(=O)O)cc2Cl)c(Cl)c1=O` [Compound No. 11]: 13%. As for `CCCc1cc(C(=O)O)ccc1OCCCNc1cnn(C)c(=O)c1Cl` [Compound No. 12], the figure is 35%; as for `Cc1ccc(S(=O)(=O)OCCCNc2cnn(C(C)(C)C)c(=O)c2Cl)cc1` [Compound No. 15, 4-Chloro-5-[3-(4-methylphenylsulfonyloxy)propylamino]-2-t-butyl-3(2H)pyridazinone], 40%; as for `COc1ccc(CCNc2cnn(C(C)(C)C)c(=O)c2Cl)cc1OC` [Compound No. 16], 31%. `CCn1ncc(NCCCOC(=O)c2ccc(Cl)cc2)c(Cl)c1=O` [Compound No. 17] registered an inhibition at 10 µg/mL of 45%.

On to `CCn1ncc(NCCc2ccc(OC)c(OC)c2)c(Cl)c1=O` [Compound No. 18], for which the inhibition at 10 µg/mL turned out to be 20%.

Compound `CCOC(=O)c1ccc(OCCCOc2cnn(CC)c(=O)c2Cl)c(Cl)c1` [Compound No. 30, 4-Chloro-5-[3-(2-chloro-4-ethoxycarbonylphenoxy)propoxy]-2-ethyl-3(2H)pyridazinone] returned an inhibition at 10 µg/mL of 40%. `CCCc1c(OCCCOc2cnn(C(C)(C)C)c(=O)c2Cl)ccc(C(C)=O)c1O` [Compound No. 37, 4-Chloro-5-[3-(2-n-propyl-3-hydroxy-4-acetylphenoxy)propoxy]-2-t-butyl-3(2H)pyridazinone] yielded an inhibition at 10 µg/mL of 40%. Next, `CCCc1cc(C(=O)OCC)ccc1OCCCNc1cnn(C(C)C)c(=O)c1` [Compound No. 63, 5-[3-(2-n-propyl-4-ethoxycarbonylphenoxy)propylamino]-2-i-propyl-3(2H)pyridazinone]: 54%. Next, `CCCc1cc(C(=O)OC)ccc1OCCCN(C)c1cnn(C(C)C)c(=O)c1Cl` [Compound No. 73, 4-Choloro-5-[3-(2-n-propyl-4-methoxycarbonylphenoxy)propyl-N-methylamino]-2-i-propyl-3(2H)pyridazinone]: 48%.

`CCc1cc(C=O)ccc1OCCCNc1cnn(CC)c(=O)c1Cl` [Compound No. 92, 4-chloro-5-[3-(2-ethyl-4-formylphenoxy)propylamino]-2-ethyl-3(2H) pyridazinone] gave an inhibition at 10 µg/mL of 100%. As for `CCc1cc(C=CC(=O)O)ccc1OCCCNc1cnn(CC)c(=O)c1Cl` [Compound No. 93, 4-Chloro-5-{3-[2-ethyl-4-(2-carboxyethenyl)phenoxy]propylamino}-2-ethyl-3(2H)pyridazinone], the figure is 79%; as for `CCCc1cc(O)ccc1OCCCNc1cnn(CC)c(=O)c1Cl` [Compound No. 108, 4-Chloro-5-[3-(2-n-propyl-4-hydroxyphenoxy)propylamino]-2-ethyl-3(2H)pyridazinone], 94%.

With `Cc1ccc(S(=O)(=O)OCC(O)CNc2cnn(C(C)C)c(=O)c2Cl)cc1` (stereo not drawn) [Compound No. 143, 4-Chloro-5-[3-(4-methylphenylsulfonyloxy)-2-hydroxypropylamino]-2-i-propyl-3(2H)pyridazinone], the inhibition at 10 µg/mL is 26%.

For `CCCc1cc(C#N)ccc1SCC(O)CNc1cnn(C(C)C)c(=O)c1Cl` (stereo not drawn) [Compound No. 153, 4-Chloro-5-[3-(2-n-propyl-4-cyanothiophenoxy)-2-hydroxypropylamino]-2-i-propyl-3(2H)pyridazinone], at 10 µg/mL the inhibition was 64%. The compound `CCCc1cc(C(=O)O)ccc1SCC(O)CNc1cnn(C(C)C)c(=O)c1Cl` (stereo not drawn) [Compound No. 154, 4-Chloro-5-[3-(2-n-propyl-4-carboxythiophenoxy)-2-hydroxypropylamino]-2-i-propyl-3(2H)pyridazinone] came in with an inhibition at 10 µg/mL of 20%. As for `CCCc1cc(C(=O)OC)ccc1SCC(O)CNc1cnn(C(C)C)c(=O)c1Cl` (stereo not drawn) [Compound No. 155, 4-Chloro-5-[3-(2-n-propyl-4-methoxycarbonylthiophenoxy)-2-hydroxypropylamino]-2-i-propyl-3(2H) pyridazinone], the figure is 55%; as for `CCCc1cc(C#N)ccc1OCC(CN(C)c1cnn(C(C)C)c(=O)c1Cl)OC` (stereo not drawn) [Compound No. 157, 4-Chloro-5-[3-(2-n-propyl-4-cyanophenoxv)-2-methoxypropyl-N-methylamino]-2-i-propyl-3(2H)pyridazinone], 62%; as for `COC(=O)CCC(=O)c1ccc(OCC(O)CNc2cnn(C(C)C)c(=O)c2Cl)cc1` (stereo not drawn) [Compound No. 166, 4-chloro-5-{3-[4-(β-methoxycarbonylpropyonyl)phenoxy]-2-hydroxypropylamino}-2-i-propyl-3(2H) pyridazinone], 25%. `COC(=O)CC(C)C(=O)c1ccc(OCC(CN(C)c2cnn(C(C)C)c(=O)c2Cl)OC)cc1` (stereo not drawn) [Compound No. 167, 4-Chloro-5-{3-[4-(β-methoxycarbonyl-α-methylpropionyl)phenoxy]-2-methoxypropyl-N-methylamino}-2-i-propyl-3(2H)pyridazinone] gave an inhibition at 10 µg/mL of 30%. Next, `CCCc1cc(C#N)ccc1OCC(O)COc1cnn(C(C)C)c(=O)c1Cl` (stereo not drawn) [Compound No. 171, 4-Chloro-5-[3-(2-n-propyl-4-cyanophenoxy)-2-hydroxypropoxy]-2-i-propyl-3(2H)pyridazinone]: 66%; `CCCc1cc(C#N)ccc1OCC(COc1cnn(C(C)C)c(=O)c1Cl)OC` (stereo not drawn) [Compound No. 172, 4-Chloro-5-[3-(2-n-propyl-4-cyanophenoxy)-2-methoxypropoxy]-2-i-propyl-3(2H)pyridazinone]: 79%.

As for `CCCc1cc(C(=O)O)ccc1OCCCNc1cnn(C(C)(C)C)c(=O)c1Cl` [compound 5], the inhibition at 10 µg/mL is 33%. Next, `COc1ccc(CCNc2cnn(C(C)(C)C)c(=O)c2Cl)cc1` [compound 19]: 60%; `CCCc1c(OCCCOc2cnn(C(C)(C)C)c(=O)c2Cl)ccc2c(=O)cc(C(=O)O)oc12` [compound 24]: 40%; `CCCc1c(OCCCOc2cnn(C(C)(C)C)c(=O)c2CC)ccc2c(=O)cc(C(=O)OCC)oc12` [compound 26]: 15%. Next, `CCn1ncc(OCCCOc2ccc(C(=O)O)cc2Cl)c(Cl)c1=O` [compound 31]: 19%; `CCOC(=O)c1ccc(OCCCOc2cnn(C(C)(C)C)c(=O)c2Cl)c(Cl)c1` [compound 32]: 29%; `CC(C)(C)n1ncc(OCCCOc2ccc(C(=O)O)cc2Cl)c(Cl)c1=O` [compound 33]: 15%. On to `COc1cccc(OCCCOc2cnn(C(C)(C)C)c(=O)c2Br)c1` [compound 34], for which the inhibition at 10 µg/mL was 61%.

For `CCCc1cc(-c2nn[nH]n2)ccc1OCCCNc1cnn(CC)c(=O)c1Cl` [compound 48], the inhibition at 10 µg/mL was found to be 36%.

With `CCOC(=O)c1ccc(OCCCNc2cnn(CC)c(=O)c2Cl)c(OC)c1` [compound 49], the inhibition at 10 µg/mL was 57%.

In the case of `CCn1ncc(NCCCOc2ccccc2OC)c(Cl)c1=O` [compound 50], the inhibition at 10 µg/mL was determined as 35%. Next, `CCn1ncc(NCCCOc2ccc(C(=O)O)cc2OC)c(Cl)c1=O` [compound 52]: 23%; `CCOc1ccc(OCCCNc2cnn(CC)c(=O)c2Cl)cc1` [compound 53]: 59%. As for `CCn1ncc(NCCCOc2ccc(C)cc2)c(Cl)c1=O` [compound 54], the figure is 64%; as for `CCn1ncc(NCCCOc2ccc(OC)cc2)c(Cl)c1=O` [compound 56], 62%.

As for `CCn1ncc(NCCCOc2ccccc2C)c(Cl)c1=O` [compound 57], the inhibition at 10 µg/mL was found to be 83%. As for `COc1ccc(OCCCNc2cnn(C(C)C)c(=O)c2Cl)cc1` [compound 58], the figure is 88%; as for `COc1ccccc1OCCCNc1cnn(C(C)C)c(=O)c1Cl` [compound 59], 82%. Next, `CCCc1cc(C#N)ccc1SCCCNc1cnn(C(C)C)c(=O)c1Cl` [compound 61]: 73%. Regarding `CCCc1cc(C(=O)O)ccc1SCCCNc1cnn(C(C)C)c(=O)c1Cl` [compound 62], the inhibition at 10 µg/mL worked out at 57%. As for `CC(C)n1ncc(NCCc2ccc(O)cc2)c(Cl)c1=O` [compound 66], the figure is 69%; as for `CCCc1cc(-c2nnn[nH]2)ccc1SCCCNc1cnn(C(C)C)c(=O)c1Cl` [compound 68], 33%. Take `C=CCc1cc(C(=O)O)ccc1OCCCNc1cnn(C(C)C)c(=O)c1Cl` [compound 70]: the inhibition at 10 µg/mL turned out to be 65%. Next, `CC(C)n1ncc(NCCCOc2ccc(C(=O)CCC(=O)O)cc2)c(Cl)c1=O` [compound 75]: 16%; `COC(=O)CCC(=O)c1ccc(OCCCNc2cnn(C(C)C)c(=O)c2Cl)cc1` [compound 76]: 57%.
